Where two headings read alike, the source gives them in different places.
Experiments:
[1] = Rat liver microsomes stability with NADPH
[2] = In vivo pharmacokinetics in male Sprague-Dawley rats; parameters: species or system rat; settings: for AUC(0-t): read-out: AUC0-tlast; for MRT inf: read-out: MRT0-inf; for half-life: read-out: Apparent t1/2 (converted)
Procedure: Male C57BL/6 mice (25-30 g) and male Sprague-Dawley rats (250-325 g) from Charles River Labs were acclimatized for a minimum of 5 days prior to dosing. Body weights were recorded on the day of dosing.
Animals dosed p.o. were deprived of food overnight and fed ˜2 h following dosing.
Formulations were administered intravenously (i.v.) via the tail vein or orally (p.o.) by gavage with disposable feeding needles.
Serial blood samples were collected via tail snip. Terminal blood samples were collected under isoflurane anesthesia by cardiac puncture.
All blood samples were transferred into K2EDTA tubes on wet ice and centrifuged within 5 min (3200×g for 5 min at 4° C.) to obtain plasma. Plasma was stored at −80° C. until analysis.
Mouse or rat plasma, as applicable.
AB Sciex QTRAP 4000 or 6500 MS/MS system equipped with an LC system with a binary pump, a solvent degasser, a thermostated column compartment and a multiplate autosampler. i. Analysis software: Phoenix® WinNonlin® 8.2 (Pharsight, Certara, Mountainview, Calif.) ii. Analysis methods: non-compartmental analysis, linear up/log down trapezoidal rule iii. PK parameters: C0, t1/2, AUC0-tlast, AUC0-∞, CL, VSS, MRT, tmax(po), Cmax(po), F, as appropriate

[3] = Human liver microsomes stability with NADPH
Procedure: (§1) The objective of this study was to estimate in vitro metabolic stability of 1-45 in pooled human and male mouse liver microsomes. The concentrations of exemplary compounds in reaction systems were evaluated by LC-MS/MS for estimating the stability in pooled human and male mouse liver microsomes. The in vitro intrinsic clearances of test compounds were determined as well.
(§2) A master solution in the “Incubation Plate” containing phosphate buffer, ultra-pure H2O, MgCl2 solution and liver microsomes was made according to Table --. The mixture was pre-warmed at 37° C. water bath for 5 minutes.
(§3) 40 μL of 10 mM NADPH solution was added to each well. The final concentration of NADPH was 1 mM. The negative control samples were prepared by replacing NADPH with 40 μL of ultra-pure H2O. Samples were prepared in duplicate. Negative controls were prepared in singlet.
(§4) The reaction was started with the addition of 4 μL of 200 μM test compounds or control compounds to each master solution to get the final concentration of 2 μM. This study was performed in duplicate.
(§5) Aliquots of 50 μL were taken from the reaction solution at 0, 15, 30, 45 and 60 minutes. The reaction solutions were stopped by the addition of 4 volumes of cold methanol with IS (100 nM alprazolam, 200 nM imipramine, 200 nM labetalol and 2 μM ketoprofen). Samples were centrifuged at 3,220 g for 40 minutes. Aliquot of 90 μL of the supernatant was mixed with 90 μL of ultra-pure H2O and then was used for LC-MS/MS analysis.
(§6) LC/MS analysis was performed for all samples from this study using a Shimadzu liquid chromatograph separation system equipped with degasser DGU-20A5R; solvent delivery unit LC-30AD; system controller SIL-30AC; column oven CTO-30A; CTC Analytics HTC PAL System. Mass spectrometric analysis was performed using an Triple Quad™ 5500 instrument.
(§7) All calculations were carried out using Microsoft Excel. Peak area ratios of test compound to internal standard (listed in the below table) were determined from extracted ion chromatograms.
(§8) All calculations were carried out using Microsoft Excel. Peak areas were determined from extracted ion chromatograms. The slope value, k, was determined by linear regression of the natural logarithm of the remaining percentage of the parent drug vs. incubation time curve.
(§9) Conversion of the in vitro t1/2 (min) into the in vitro intrinsic clearance (in vitro CLint, in μL/min/mg proteins) was done using the following equation (mean of duplicate determinations):
(§10) [formula] […] Results & Discussion

[4] = Mouse liver microsomes stability with NADPH
Procedure: as §1, §2, §3, §4, §5, §6, §7, §8, §9, §10

[5] = p.o. 3.0 mg/kg per title (dose row prints 10)
[6] = rat, plasma, iv, i.v. 0.3 mg/kg
[7] = rat, plasma, po, p.o. 3.0 mg/kg per title (dose row prints 10)
[8] = rat, plasma, sc, s.c. 0.3 mg/kg

Compound: [2H]C([2H])([2H])N(C([2H])([2H])[2H])C([2H])([2H])C([2H])([2H])c1c[nH]c2cccc(O)c12 [Compound I-45, 3-(2-(bis(methyl-d3)amino)ethyl-1,1,2,2-d4)-1H-indol-4-ol]
- Remaining Percentage (%) after 60 min ([1]; Rat, with NADPH, 2 μM): 3.34%
- half-life at 2 μM ([1]; rat, microsomes): 12.2 min
- microsomal CLint at 2 μM ([1]; rat, microsomes): 113 µL/min/mg
- AUC0-inf/Dose ([2]; i.v. 0.3 mg/kg): 181 ± 30.8 kg·ng·h/mL/mg
- AUC(0-inf) ([2]; i.v. 0.3 mg/kg): 117 ± 11.5 ng·h/mL
- Apparent t1/2 ([2]; i.v. 0.3 mg/kg): 34.6 ± 3.17 h
- AUC0-inf/Dose [2, 5]: 181 ± 14.6 kg·ng·h/mL/mg
- Cmax/Dose [2, 5]: 79.2 ± 24.4 kg·ng/mL/mg
- clearance [2, 6]: 143 mL/min/kg
- AUC(0-t) [2, 6]: 35.2 ± 3.45 ng·h/mL
- MRT inf [2, 6]: 1.49 ± 0.536 h
- Cmax [2, 7]: 238 ± 73.3 ng/mL
- Tmax [2, 7]: 20 ± 8.64 min
- bioavailability [2, 7]: 155 ± 12.4%
- AUC(0-inf) ([2]; rat, plasma, po, p.o. 3.0 mg/kg per title (dose row prints 10), read-out: AUC0-inf): 543 ± 43.7 ng·h/mL
- AUC(0-t) [2, 7]: 534 ± 38.7 ng·h/mL
- half-life [2, 7]: 157 ± 47.7 min
- MRT inf [2, 7]: 2.77 ± 0.486 h
- Cmax [2, 8]: 30.2 ± 12.2 ng/mL
- Tmax [2, 8]: 16.7 ± 12.6 min
- bioavailability [2, 8]: 125 ± 30.4%
- AUC(0-inf) ([2]; rat, plasma, sc, s.c. 0.3 mg/kg, read-out: AUC0-inf): 35.9 ± 8.71 ng·h/mL
- AUC(0-t) [2, 8]: 32 ± 9.2 ng·h/mL
- half-life [2, 8]: 38.8 ± 12.7 min
- MRT inf [2, 8]: 0.991 ± 0.228 h
- AUC0-inf/Dose ([2]; s.c. 0.3 mg/kg): 120 ± 29.0 kg·ng·h/mL/mg
- Cmax/Dose ([2]; s.c. 0.3 mg/kg): 101 ± 40.7 kg·ng/mL/mg
- Remaining Percentage (%) after 60 min ([3]; Human, with NADPH, 2 μM): 73.65%
- half-life at 2 μM ([3]; human, microsomes): 136 min
- microsomal CLint at 2 μM ([3]; human, microsomes): 10.2 µL/min/mg
- Remaining Percentage (%) after 60 min ([4]; Mouse, with NADPH, 2 μM): 64.91%
- half-life at 2 μM ([4]; male, mouse, microsomes): 96.2 min
- microsomal CLint at 2 μM ([4]; male, mouse, microsomes): 14.4 µL/min/mg

Source: patent US11427604B2 (Mindset Pharma Inc., priority 2020, dated 2022)
